Data: patent publication US20250011722A1, “HEPATIC ORGANOIDS” (Koninklijke Nederlandse Akademie van Wetenschappen, priority 2021, published 2025)
“Also recorded” adds a separate entry of the source.

What was measured:
Format in all cases: cell-based, human
APOB^−/− organoids [1] = experiment: anti-NAFLD drug screening, Nile Red lipid staining and lipid score; conditions: APOB^−/− organoids exposed to drugs for 7 days
Description: (§1) Compound stocks of all drugs were made in DMSO, except for recombinant hFGF19 and hFGF21 which were reconstituted in AdvDMEM+++. Drugs were dissolved in HEP medium with a maximum final concentration of 0.2% DMSO. The drug panel, their targets, and concentrations tested are described in Table 2.
(§2) APOB^−/− and MTTP^−/− organoids were exposed to the drugs or vehicle in 24-well plates for 7 days with 2 medium changes. Wild type organoids were first made steatotic by pre-incubation with 500 μM FFAs (oleic acid and palmitic acid, 1:1 ratio) for 2 days. Then, FFA-loaded organoids were treated with the different drugs, still in the presence of FFA, for 7 days with 2 medium changes. All organoids were harvested for subsequent lipid staining and lipid scoring as described below. Drug effects were evaluated by observing the lipid droplet fluorescence characteristics within all organoids within the whole well. Quantitative analyses were performed in representative organoids (n≥3) per drug concentration per steatosis organoid model. Drug effects were validated in at least two independent experiments. For drug screening in PLIN2::tdTomato reporter organoids, the organoids were plated in 96-well black plates and treated with the indicated drugs. Pictures were taken over a 7-day time course using the EVOS FL Auto Imaging System. Images and fluorescence quantifications are representative of two independent experiments.
(§3) Organoids were carefully harvested in cold AdvDMEM+++ and washed once with cold AdvDMEM+++ using low-speed centrifugations. Organoids were fixed in 4% formaldehyde at RT for 30 min-1 hour. For lipid stainings, organoids were washed twice with PBS, and incubated with Nile Red (1 μg/μl) and DAPI (1 μg/μl) for 20 min at RT. Organoids were washed twice with PBS, and transferred in 100 μl PBS to a well of a 96-well black SensoPlate for imaging analysis. […] Organoids were washed once with 0.5% BSA-PBS and subsequently incubated with primary antibodies in 2.5% BSA-PBS O/N at 4° C. After 3 washes with 0.5% BSA-PBS, organoids were incubated with secondary antibodies in 2.5% BSA-PBS for 2-4 hours at RT. Organoids were washed once with 0.5% BSA-PBS, after which they were incubated with DAPI (1 μg/μl) in 0.5% BSA-PBS for 20 min at RT, and washed once more with 0.5% BSA-PBS. Organoids were then transferred in 100 μl 0.5% BSA-PBS to a well of a 96-well black SensoPlate.
(§4) Stained organoids were imaged on a Leica Sp8 confocal. Fluorescent images were processed using Photoshop CS4 or ImageJ software. The lipid score was calculated using Fiji software. The lipid score is defined by integrating the lipid droplet fluorescence and lipid droplet area coverage as follows: a fluorescence threshold derived from the lipid droplet signal is determined on Z-projected images to convert them into binary images. The region of interest (ROI) (organoid surface area) is defined based on fluorescence signal from the counterstained DAPI^+ nuclei. Then, particle measurement analysis is performed to define the fluorescence area covered within the defined ROI. The lipid score represents a normalized score of the resulting data on a linear 0 to 1 scale, where the mean calculated values from wild type organoids are arbitrarily set to 0, while the mean calculated values from either vehicle-treated APOB^−/− or MTTP^−/− organoids or vehicle-treated FFA-loaded organoids are set to 1, allowing scoring of drug effectiveness within these boundaries. Quantification of the amount of lipid droplets was performed manually by counting droplets within a given ROI (organoid surface area). The lipid droplet area coverage is determined identical to the lipid score without the final normalization steps.

MTTP^−/− organoids = experiment: as above; conditions: MTTP^−/− organoids exposed to drugs for 7 days
Description: as §1, §2, §3, §4

[2] = system: FFA-loaded wild type organoids; experiment: as above; conditions: wild type organoids pre-incubated with 500 μM FFAs 2 days, then drugs 7 days in presence of FFA
Description: Wild type human hepatocyte organoids were made steatotic by providing a concentrated mixture of exogenous FFAs (oleic acid (18:1) and palmitic acid (16:0), ratio 1:1) in the culture medium. The FFAs were dissolved in ethanol and thereafter conjugated to bovine serum albumin. Prior to fat loading, organoids were plated into small BME droplets (15 μl/drop) to facilitate FFA penetration. Total concentrations of FFA were 640 μM for transcriptomic analyses to mimic the level of steatosis observed in APOB^−/− or MTTP^−/− organoids.
as §1
as §2, with “experiments. […]” for “experiments. For drug screening in PLIN2::tdTomato reporter organoids, the organoids were plated in 96-well black plates and treated with the indicated drugs. Pictures were taken over a 7-day time course using the EVOS FL Auto Imaging System.”, “experiments. […]” for “experiments.”
as §4, with “Fluorescent images were processed using Photoshop CS4 or ImageJ software.” left out, “Quantification of the amount of lipid droplets was performed manually by counting droplets within a given ROI (organoid surface area). The lipid droplet area coverage is determined identical to the lipid score without the final normalization steps.” left out

[3] = system: PLIN2::tdTomato; MTTP^−/− reporter organoids; experiment: drug screening in PLIN2 reporter organoids, fluorescence read-out; conditions: PLIN2-tagged reporter organoids, ACCi or vehicle for 5 days
Text: PLIN2 reporter lines in the background of APOB^−/− or MTTP^−/− organoids were generated using CRISPR-HOT as described previously (Artegiani et al., 2020; Hendriks et al., 2021). Briefly, the transfection mixture consisted of a sgRNA targeting the C-terminus of PLIN2, a plasmid providing both Cas9 and a non-human sgRNA targeting the donor plasmid (Addgene #66940), and a donor plasmid encoding either tdTomato (Addgene #138567) or mNeon (a gift from V. Hornung). Upon transfection, the sgRNA targeting the donor plasmid linearizes the donor plasmid to facilitate NHEJ-mediated in-frame gene knock-in of the fluorescent tag into the PLIN2 C-terminus. Upon outgrowth of transfected organoids, fluorescent organoids became apparent. A bulk PLIN2-tagged fluorescence-pure culture was established by sorting single fluorescence-positive cells by FACS. Genotyping was performed to confirm precise gene knock-in.
APOB^−/− and MTTP^−/− organoids were exposed to the drugs or vehicle in 24-well plates for 7 days with 2 medium changes. […] Drug effects were evaluated by observing the lipid droplet fluorescence characteristics within all organoids within the whole well. Quantitative analyses were performed in representative organoids (n≥3) per drug concentration per steatosis organoid model. […] Images and fluorescence quantifications are representative of two independent experiments.

APOB^−/− organoids [4] = experiment: bulk RNA-sequencing of drug-treated organoids
Description: Organoids from 1 well of a 12-well plate were harvested and washed in cold AdvDMEM+++. Organoid pellets were lysed in 1 ml TRIzol Reagent and subsequently snap-frozen in liquid nitrogen. RNA was extracted according to the manufacturer's protocol. RNA integrity was measured using the Agilent RNA 6000 Nano kit with the Agilent 2100 Bioanalyzer and RNA concentrations were determined using the Qubit RNA HS Assay Kit. RNA integrity number (RIN) values of RNA samples were typically 9.5-10 and never below 9.0. RNA libraries were prepared TruSeq Stranded mRNA polyA kit and single-end (1×75 bp) sequenced on an Illumina Nextseq 2000 or Nextseq 500. Reads were mapped to the human GRCh38 genome assembly. Differential gene expression analysis was performed using the DESeq2 package (Love et al., 2014) in RStudio. Considered log 2 fold changes and significance (p-values) are indicated throughout the paper. Data visualization was obtained using the ggplot2, ComplexHeatmap, and EnhancedVolcano packages in RStudio or manually plotted using GraphPad Prism 8.

COc1ccccc1[C@H](Cn1c(=O)n(C(C)(C)C(=O)O)c(=O)c2c(C)c(-c3ncco3)sc21)OC1CCOCC1 [ACCi, Firsocostat]
steatosis phenotype (lipid staining, lipid score) (APOB^−/− organoids [1]): Effective | steatosis phenotype (lipid staining, lipid score) (MTTP^−/− organoids): Effective | steatosis phenotype (lipid staining, lipid score) [2]: Effective | endogenous fluorescent signal of PLIN2 reporter [3]: reduced the endogenous fluorescent signal | expression of genes important for cell proliferation and DNA synthesis (APOB^−/− organoids [4]): downregulation | expression of key genes involved in glycolysis (ALDOB, HK2, ENO2, PFKFB3/4) (APOB^−/− organoids [4]): downregulated | expression of lipogenic genes (ACACA, FASN, SREBF1, etc.) (APOB^−/− organoids [4]): increased expression

CS(=O)(=O)O.O=C([C@@H]1CCCN(c2ccc3[nH]c(C4(n5cc(Cl)cn5)CC4)nc3n2)C1)N1CCCC1 [DGAT2i, PF06424439]
steatosis phenotype (lipid staining, lipid score) (APOB^−/− organoids [1]): Effective | steatosis phenotype (lipid staining, lipid score) (MTTP^−/− organoids): Effective | steatosis phenotype (lipid staining, lipid score) [2]: Effective | transcriptomic changes versus vehicle-treated organoids (APOB^−/− organoids [4]): transcriptomically identical to vehicle-treated organoids; also recorded: very few transcriptomic changes

O=C(Nc1ccc2[nH]nc(-c3ccncc3)c2c1)[C@@H]1CCN(CC(=O)N2CCN(c3ccc(-c4ncccn4)cc3)CC2)C1 [ERKi, SCH772984]
steatosis phenotype (lipid staining, lipid score) (APOB^−/− organoids [1]): did not alter the steatosis phenotype | steatosis phenotype (lipid staining, lipid score) (MTTP^−/− organoids): did not alter the steatosis phenotype

Cc1nnc(-c2cc(C(=O)N3CCC(c4ccc(C#N)cc4)CC3)c(C)cc2C2CCC2)[nH]1 [FASi, TVB2640]
steatosis phenotype (lipid staining, lipid score) (APOB^−/− organoids [1]): Effective | steatosis phenotype (lipid staining, lipid score) (MTTP^−/− organoids): Effective | steatosis phenotype (lipid staining, lipid score) [2]: Effective | expression of genes important for cell proliferation and DNA synthesis (APOB^−/− organoids [4]): downregulation | expression of key genes involved in glycolysis (ALDOB, HK2, ENO2, PFKFB3/4) (APOB^−/− organoids [4]): downregulated | expression of lipogenic genes (ACACA, FASN, SREBF1, etc.) (APOB^−/− organoids [4]): increased expression

O=C(O)c1ccnc(N2CC(O)(c3ccc(OCc4c(-c5c(Cl)cccc5Cl)noc4C4CC4)cc3Cl)C2)c1 [FXRa, Cilofexor]
FGF19 expression (APOB^−/− organoids [4]): strongly upregulated | expression of FXR target genes CYP7A1 and CYP27A1 (APOB^−/− organoids [4]): downregulation | expression of NR0B2 (SHP) (APOB^−/− organoids [4]): induction | expression of de novo lipogenesis-related genes, including DGAT2, ACSS2, and GPAM (APOB^−/− organoids [4]): repress | expression of key hepatocyte markers (ALB, TTR) (APOB^−/− organoids [4]): downregulation | expression of transporters such as BSEP (ABCB11) (APOB^−/− organoids [4]): induction | genes of TGFβ regulation of extracellular matrix (APOB^−/− organoids [4]): gene induction patterns suggestive of TGFβ-related extracellular matrix remodeling

Oc1ccc(-c2nc(-c3ccncc3)c(-c3ccc(F)cc3)[nH]2)cc1 [p38i, SB202190]
steatosis phenotype (lipid staining, lipid score) (APOB^−/− organoids [1]): reduced the steatosis phenotype | steatosis phenotype (lipid staining, lipid score) (MTTP^−/− organoids): reduced the steatosis phenotype

hFGF19: recombinant human FGF19, activates β-Klotho/FGFRs
steatosis phenotype (lipid staining, lipid score) (APOB^−/− organoids [1]): marked steatosis-reducing effects | steatosis phenotype (lipid staining, lipid score) (MTTP^−/− organoids): marked steatosis-reducing effects | steatosis phenotype (lipid staining, lipid score) [2]: marked steatosis-reducing effects | expression of FXR target genes CYP7A1 and CYP27A1 (APOB^−/− organoids [4]): downregulation | expression of NR0B2 (SHP) (APOB^−/− organoids [4]): induction | expression of de novo lipogenesis-related genes, including DGAT2, ACSS2, and GPAM (APOB^−/− organoids [4]): repress | expression of key hepatocyte markers (ALB, TTR) (APOB^−/− organoids [4]): downregulation | genes of TGFβ regulation of extracellular matrix (APOB^−/− organoids [4]): gene induction patterns suggestive of TGFβ-related extracellular matrix remodeling
